In the oligonucleotide strings, read from the 5' end, every base follows the letter of its sugar. An asterisk marks phosphorothioate; unmarked linkages are phosphodiester. Other units and linkages are bracketed, terminal groups are in braces. A string of capitals states the bases alone. e = 2'-O-(2-methoxyethyl) (MOE); [5mC] = 5-methylcytosine; d = 2'-deoxy (DNA)
Tested on: T47D cells
Test: Caspase-3 activity assay (apoptosis) in T47D cells
Settings: for Fold Increase over UTC (caspase-3 activity, apoptosis): T47D cells, 200 nM oligomeric compound, 48 hours, experiment of Table 10; for apoptosis in T47D cells: caspase assay, 200 nM, conclusion from Tables 9-12

Substance | Fold Increase over UTC (caspase-3 activity, apoptosis) [fold] | apoptosis in T47D cells
328696 (e[5mC]*eT*e[5mC]*eT*eA*dG*d[5mC]*dT*d[5mC]*d[5mC]*d[5mC]*dT*d[5mC]*dA*d[5mC]*e[5mC]*eA*eG*eT*eG; antisense) [compound 328696] | 1.5 | 
328700 (eA*eG*e[5mC]*e[5mC]*eA*dG*dT*dG*dT*dG*dT*dA*dA*dA*dA*eT*eG*eA*eG*eA; antisense) [compound 328700] | 0.8 | 
AAAAATAATCTCTGCACAGG (antisense; same sequence listed as MOE 5-10-5 gapmer and as uniform MOE, further chemistry not given here) [ISIS 328657] |  | prevent or have a protective effect from apoptosis
AATCCATTGAAGAGGCGATT (antisense; same sequence listed as MOE 5-10-5 gapmer and as uniform MOE, further chemistry not given here) [ISIS 328650] |  | prevent or have a protective effect from apoptosis
ACTGATTCAAGAGCTTTGTA (antisense; same sequence listed as MOE 5-10-5 gapmer and as uniform MOE, further chemistry not given here) [ISIS 328648] |  | induce apoptosis
AGAATGAGTTGACATACCAA (antisense; same sequence listed as MOE 5-10-5 gapmer and as uniform MOE, further chemistry not given here) [ISIS 328658] |  | induce apoptosis
AGCCAGTGTGTAAAATGAGA (2'-MOE gapmer, phosphorothioate, further chemistry not given here) [ISIS 328700] |  | prevent or have a protective effect from apoptosis
CAAACGGTAAGATTTGCAGA (antisense; same sequence listed as MOE 5-10-5 gapmer and as uniform MOE, further chemistry not given here) [ISIS 328694] |  | prevent or have a protective effect from apoptosis
CCGAGGGTCTAACCCAGCCC (antisense; same sequence listed as MOE 5-10-5 gapmer and as uniform MOE, further chemistry not given here) [ISIS 328638] |  | prevent or have a protective effect from apoptosis
CTCTAGCTCCCTCACCAGTG (antisense; same sequence listed as MOE 5-10-5 gapmer and as uniform MOE, further chemistry not given here) [ISIS 328696] |  | induce apoptosis
GACAAGGTGGGAGCGAGTGG (antisense; same sequence listed as MOE 5-10-5 gapmer and as uniform MOE, further chemistry not given here) [ISIS 328644] |  | prevent or have a protective effect from apoptosis
GACTACTGTTGAGAGGAACA (antisense; same sequence listed as MOE 5-10-5 gapmer and as uniform MOE, further chemistry not given here) [ISIS 328639] |  | prevent or have a protective effect from apoptosis
GCCTCCTTCATATATTCTCA (antisense; same sequence listed as MOE 5-10-5 gapmer and as uniform MOE, further chemistry not given here) [ISIS 328690] |  | prevent or have a protective effect from apoptosis
GCTTTTAGAACCACTGCCTC (antisense; same sequence listed as MOE 5-10-5 gapmer and as uniform MOE, further chemistry not given here) [ISIS 328646] |  | induce apoptosis
GGATTTAAACGGTAAACATC (antisense; same sequence listed as MOE 5-10-5 gapmer and as uniform MOE, further chemistry not given here) [ISIS 328695] |  | prevent or have a protective effect from apoptosis
GGCCTAATATCCCTACCCCA (antisense; same sequence listed as MOE 5-10-5 gapmer and as uniform MOE, further chemistry not given here) [ISIS 328652] |  | induce apoptosis
GTGTTCAGAAACCCAGGCCC (antisense; same sequence listed as MOE 5-10-5 gapmer and as uniform MOE, further chemistry not given here) [ISIS 328653] |  | induce apoptosis
ISIS 328371: 5-10-5 2′-MOE gapmer PS; targets mir-1d pri-miRNA (eT*e[5mC]*e[5mC]*eA*eT*dA*dG*d[5mC]*dT*dT*dA*dG*d[5mC]*dA*dG*eG*eT*e[5mC]*e[5mC]*eA) |  | induce apoptosis
ISIS 328381: 5-10-5 2′-MOE gapmer PS; targets mir-214 pri-miRNA (eA*e[5mC]*eA*eG*eG*dT*dG*dA*dG*d[5mC]*dG*dG*dA*dT*dG*eT*eT*e[5mC]*eT*eG) |  | induce apoptosis
ISIS 328391: 5-10-5 2′-MOE gapmer PS; targets hypothetical miRNA-044 pri-miRNA (eA*eT*eG*eG*eT*dA*dA*dT*dT*dT*d[5mC]*dA*dT*dT*dT*e[5mC]*eA*eG*eG*e[5mC]) |  | prevent or have a protective effect from apoptosis
ISIS 328397: 5-10-5 2′-MOE gapmer PS; targets mir-103-1 pri-miRNA (eT*eT*eG*eA*eT*d[5mC]*d[5mC]*dA*dT*dA*dT*dG*d[5mC]*dA*dA*e[5mC]*eA*eA*eG*eG) |  | induce apoptosis
SEQ ID NO 483: gapmer of Tables 9-12 having this SEQ ID NO (antisense eA*eG*e[5mC]*eT*eT*dT*dA*dG*d[5mC]*dT*dG*dG*dG*dT*d[5mC]*eA*eG*eG*eA*e[5mC]) |  | induce apoptosis
SEQ ID NO 485: gapmer of Tables 9-12 having this SEQ ID NO (antisense eT*e[5mC]*eA*e[5mC]*eA*dA*dT*d[5mC]*d[5mC]*d[5mC]*d[5mC]*dA*d[5mC]*d[5mC]*dA*eA*eA*e[5mC]*eT*e[5mC]) |  | prevent or have a protective effect from apoptosis
SEQ ID NO 488: gapmer of Tables 9-12 having this SEQ ID NO (antisense e[5mC]*eT*eG*eA*e[5mC]*dT*dG*dA*dG*dA*d[5mC]*dT*dG*dT*dT*e[5mC]*eA*e[5mC]*eA*eG) |  | induce apoptosis
SEQ ID NO 495: gapmer of Tables 9-12 having this SEQ ID NO (antisense eA*e[5mC]*e[5mC]*eT*eG*dT*dG*dT*dA*dA*d[5mC]*dA*dG*d[5mC]*d[5mC]*eG*eT*eG*eT*eA) |  | prevent or have a protective effect from apoptosis
SEQ ID NO 496: gapmer of Tables 9-12 having this SEQ ID NO (antisense eT*eT*eA*eT*e[5mC]*dG*dG*dA*dA*d[5mC]*dT*dT*d[5mC]*dA*d[5mC]*eA*eG*eA*eG*eA) |  | induce apoptosis
SEQ ID NO 498: gapmer of Tables 9-12 having this SEQ ID NO (antisense eG*eG*e[5mC]*eA*e[5mC]*dT*dT*d[5mC]*dA*dT*dT*dG*d[5mC]*dT*dG*e[5mC]*eT*eG*e[5mC]*e[5mC]) |  | induce apoptosis

Reference: US8178506B2, “Oligomeric compounds and compositions for use in modulation of small non-coding RNAs” (Regulus Therapeutics Inc., priority 2003, dated 2012)
